The results in this text go back to patent publication US10519152B2, “Compounds and their use in treating cancer” (AstraZeneca AB, priority 2017, dated 2019).

The assay concerns the target T1, Estrogen Receptor (ERα) in MCF-7 human ductal carcinoma breast cell line (Homo sapiens, UniProt P03372).
T1 construct: endogenous in cells; host or cells: MCF-7
T1 sequence (P03372 1-595): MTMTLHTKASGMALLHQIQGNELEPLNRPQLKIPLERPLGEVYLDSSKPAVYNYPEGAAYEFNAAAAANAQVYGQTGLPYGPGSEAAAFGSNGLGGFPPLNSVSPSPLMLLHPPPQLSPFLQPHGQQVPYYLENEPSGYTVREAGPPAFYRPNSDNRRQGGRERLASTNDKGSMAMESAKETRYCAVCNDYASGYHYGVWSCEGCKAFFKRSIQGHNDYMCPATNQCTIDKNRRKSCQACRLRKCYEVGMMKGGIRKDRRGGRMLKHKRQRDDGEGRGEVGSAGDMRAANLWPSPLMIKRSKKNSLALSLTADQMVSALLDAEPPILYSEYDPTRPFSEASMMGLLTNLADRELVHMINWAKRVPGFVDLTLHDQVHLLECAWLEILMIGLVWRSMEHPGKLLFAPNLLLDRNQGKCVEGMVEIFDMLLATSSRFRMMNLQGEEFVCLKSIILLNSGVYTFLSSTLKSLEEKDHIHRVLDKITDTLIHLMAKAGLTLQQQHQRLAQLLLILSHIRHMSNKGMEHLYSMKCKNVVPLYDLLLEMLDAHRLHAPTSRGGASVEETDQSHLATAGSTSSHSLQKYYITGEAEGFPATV
Kind of assay: MCF-7 ER degradation assay (cell based immuno-fluorescence). The conditions noted are these: MCF-7 cells; for ER degradation ≥ 90% at 0.3 μM: ER degradation by fulvestrant at 0.3 μM is defined as 100%; for DC50: 18-22 hours incubation, 50% reduction of ERα expression, single experiment or average of two or more, read-out: MCF-7 ER degradation IC50. In outline:
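MCF-7 human ductal carcinoma breast cells were seeded at 3.75×10^4 cells per mL (40 μL per well) in 384 well plates with phenol red free DMEM containing 2 mM L-Glutamine and 5% (v/v) Charcoal/Dextran treated foetal calf serum. After overnight culture, compounds were acoustically dispensed, incubated 18-22 hours, then cells were formaldehyde-fixed and immunostained for ERα.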

In the case of `Cc1ncsc1-c1ccc(CNC(=O)[C@@H]2C[C@@H](O)CN2C(=O)[C@@H](NC(=O)COCCCCCCCCOc2cc(F)c([C@@H]3c4[nH]c5ccccc5c4C[C@@H](C)N3CC(C)(C)F)c(F)c2)C(C)(C)C)cc1` [Example 12, (2S,4R)-1-((S)-2-(2-((8-(3,5-Difluoro-4-((1R,3R)-2-(2-fluoro-2-methylpropyl)-3-methyl-2,3,4,9-tetrahydro-1H-pyrido[3,4-b]indol-1-yl)phenoxy)octyl)oxy)acetamido)-3,3-dimethylbutanoyl)-4-hydroxy-N-(4-(4-methylthiazol-5-yl)benzyl)pyrrolidine-2-carboxamide], the “ER degradation ≥ 90% at 0.3 μM” value is recorded as “••” and the DC50 was found to be 6.6 nM.

Regarding `Cc1ncsc1-c1ccc(CNC(=O)[C@@H]2C[C@@H](O)CN2C(=O)[C@@H](NC(=O)COCCOCCOCCOCCOc2cc(F)c([C@@H]3c4[nH]c5ccccc5c4C[C@@H](C)N3CC(C)(C)F)c(F)c2)C(C)(C)C)cc1` [Example 37, (2S,4R)-1-((S)-2-(tert-Butyl)-17-(3,5-difluoro-4-((1R,3R)-2-(2-fluoro-2-methylpropyl)-3-methyl-2,3,4,9-tetrahydro-1H-pyrido[3,4-b]indol-1-yl)phenoxy)-4-oxo-6,9,12,15-tetraoxa-3-azaheptadecanoyl)-4-hydroxy-N-(4-(4-methylthiazol-5-yl)benzyl)pyrrolidine-2-carboxamide], the “ER degradation ≥ 90% at 0.3 μM” value is “••” and the DC50 turned out to be 3 nM.

As to `Cc1ncsc1-c1ccc(CNC(=O)[C@@H]2C[C@@H](O)CN2C(=O)[C@@H](NC(=O)CCCOc2cccc(COc3cc(F)c([C@@H]4c5[nH]c6ccccc6c5C[C@@H](C)N4CC(C)(C)F)c(F)c3)n2)C(C)(C)C)cc1` [Example 162, (2S,4R)-1-((S)-2-(4-((6-((3,5-Difluoro-4-((1R,3R)-2-(2-fluoro-2-methylpropyl)-3-methyl-2,3,4,9-tetrahydro-1H-pyrido[3,4-b]indol-1-yl)phenoxy)methyl)pyridin-2-yl)oxy)butanamido)-3,3-dimethylbutanoyl)-4-hydroxy-N-(4-(4-methylthiazol-5-yl)benzyl)pyrrolidine-2-carboxamide], the “ER degradation ≥ 90% at 0.3 μM” value is given as “•” and the DC50 stood at 1.8 nM.

As for `Cc1ncsc1-c1ccc(CNC(=O)[C@@H]2C[C@@H](O)CN2C(=O)[C@@H](NC(=O)COCCOCCCCCOc2cc(F)c([C@@H]3c4[nH]c5ccccc5c4C[C@@H](C)N3CC(F)(F)F)c(F)c2)C(C)(C)C)cc1` [Example 139, (2S,4R)-1-((S)-2-(2-(2-((5-(3,5-Difluoro-4-((1R,3R)-3-methyl-2-(2,2,2-trifluoroethyl)-2,3,4,9-tetrahydro-1H-pyrido[3,4-b]indol-1-yl)phenoxy)pentyl)oxy)ethoxy)acetamido)-3,3-dimethylbutanoyl)-4-hydroxy-N-(4-(4-methylthiazol-5-yl)benzyl)pyrrolidine-2-carboxamide], the “ER degradation ≥ 90% at 0.3 μM” value is recorded as “••” and the DC50 is 1.1 nM.

Turning to `Cc1ncsc1-c1ccc(CNC(=O)[C@@H]2C[C@@H](O)CN2C(=O)[C@@H](NC(=O)COCCCCCOCCCOc2cc(F)c([C@@H]3c4[nH]c5ccccc5c4C[C@@H](C)N3CC(C)(C)F)c(F)c2)C(C)(C)C)cc1` [Example 136, (2S,4R)-1-((S)-2-(2-((5-(3-(3,5-Difluoro-4-((1R,3R)-2-(2-fluoro-2-methylpropyl)-3-methyl-2,3,4,9-tetrahydro-1H-pyrido[3,4-b]indol-1-yl)phenoxy)propoxy)pentyl)oxy)acetamido)-3,3-dimethylbutanoyl)-4-hydroxy-N-(4-(4-methylthiazol-5-yl)benzyl)pyrrolidine-2-carboxamide], the “ER degradation ≥ 90% at 0.3 μM” value was “••” and the DC50 worked out at 1.1 nM.

`Cc1ncsc1-c1ccc(CNC(=O)[C@@H]2C[C@@H](O)CN2C(=O)[C@@H](NC(=O)COCCOCCOCCOCCOCCOCC(=O)Nc2ccc([C@@H]3c4[nH]c5ccccc5c4C[C@@H](C)N3CC(C)(C)F)cc2)C(C)(C)C)cc1` [Example 54, N^1-(4-((1R,3R)-2-(2-fluoro-2-methylpropyl)-3-methyl-2,3,4,9-tetrahydro-1H-pyrido[3,4-b]indol-1-yl)phenyl)-N^18—((S)-1-((2S,4R)-4-hydroxy-2-(4-(4-methylthiazol-5-yl)benzylcarbamoyl)pyrrolidin-1-yl)-3,3-dimethyl-1-oxobutan-2-yl)-2,5,8,11,14,17-hexaoxaoctadecane-1,18-dicarboxamide, Trifluoroacetic Acid]: the “ER degradation ≥ 90% at 0.3 μM” value is on record as “••” and the DC50 is 1.7 nM.

As to `Cc1ncsc1-c1ccc([C@H](C)NC(=O)[C@@H]2C[C@@H](O)CN2C(=O)[C@@H](NC(=O)COCCCOCCCOc2cc(F)c([C@@H]3c4[nH]c5ccccc5c4C[C@@H](C)N3CC(C)(C)F)c(F)c2)C(C)(C)C)cc1` [Example 152, (2S,4R)-1-((S)-2-(2-(3-(3-(3,5-Difluoro-4-((1R,3R)-2-(2-fluoro-2-methylpropyl)-3-methyl-2,3,4,9-tetrahydro-1H-pyrido[3,4-b]indol-1-yl)phenoxy)propoxy)propoxy)acetamido)-3,3-dimethylbutanoyl)-4-hydroxy-N—((S)-1-(4-(4-methylthiazol-5-yl)phenyl)ethyl)pyrrolidine-2-carboxamide], the “ER degradation ≥ 90% at 0.3 μM” value is given as “••” and the DC50 was 0.8 nM.

For the compound `Cc1ncsc1-c1ccc(CNC(=O)[C@@H]2C[C@@H](O)CN2C(=O)[C@@H](NC(=O)COCCCCCN(CCOc2cc(F)c([C@@H]3c4[nH]c5ccccc5c4C[C@@H](C)N3CC(C)(C)F)c(F)c2)C(=O)OCc2ccccc2)C(C)(C)C)cc1` [Example 45, Benzyl (2-(3,5-difluoro-4-((1R,3R)-2-(2-fluoro-2-methylpropyl)-3-methyl-2,3,4,9-tetrahydro-1H-pyrido[3,4-b]indol-1-yl)phenoxy)ethyl)(5-(2-(((S)-1-((2S,4R)-4-hydroxy-2-((4-(4-methylthiazol-5-yl)benzyl)carbamoyl)pyrrolidin-1-yl)-3,3-dimethyl-1-oxobutan-2-yl)amino)-2-oxoethoxy)pentyl)carbamate], the “ER degradation ≥ 90% at 0.3 μM” value is on record as “••” and the DC50 was found to be 12 nM.

As for `Cc1ncsc1-c1ccc([C@H](C)NC(=O)[C@@H]2C[C@@H](O)CN2C(=O)[C@@H](NC(=O)COCCOCCCCCOc2cc(F)c([C@@H]3c4[nH]c5ccccc5c4C[C@@H](C)N3CC(C)(C)F)c(F)c2)C(C)(C)C)cc1` [Example 156, (2S,4R)-1-((S)-2-(2-(2-((5-(3,5-Difluoro-4-((1R,3R)-2-(2-fluoro-2-methylpropyl)-3-methyl-2,3,4,9-tetrahydro-1H-pyrido[3,4-b]indol-1-yl)phenoxy)pentyl)oxy)ethoxy)acetamido)-3,3-dimethylbutanoyl)-4-hydroxy-N—((S)-1-(4-(4-methylthiazol-5-yl)phenyl)ethyl)pyrrolidine-2-carboxamide], the “ER degradation ≥ 90% at 0.3 μM” value is reported as “••” and the DC50 came to 1.5 nM.

Consider `Cc1ncsc1-c1ccc(CNC(=O)[C@@H]2C[C@@H](O)CN2C(=O)[C@@H](NC(=O)COCCCCCOCCOc2cc(F)c([C@@H]3c4[nH]c5ccccc5c4C[C@@H](C)N3CC(C)(C)F)c(F)c2)C(C)(C)C)cc1` [Example 9, (2S,4R)-1-((S)-2-(2-((5-(2-(3,5-Difluoro-4-((1R,3R)-2-(2-fluoro-2-methylpropyl)-3-methyl-2,3,4,9-tetrahydro-1H-pyrido[3,4-b]indol-1-yl)phenoxy)ethoxy)pentyl)oxy)acetamido)-3,3-dimethylbutanoyl)-4-hydroxy-N-(4-(4-methylthiazol-5-yl)benzyl)pyrrolidine-2-carboxamide], for which the “ER degradation ≥ 90% at 0.3 μM” value is listed as “••” and the DC50 amounted to 0.7 nM.

Turning to `Cc1ncsc1-c1ccc(CNC(=O)[C@@H]2C[C@@H](O)CN2C(=O)[C@@H](NC(=O)COCCCOCCOc2ccc([C@@H]3c4[nH]c5ccccc5c4C[C@@H](C)N3CC(F)F)nc2)C(C)(C)C)cc1` [Example 26, (2S,4R)-1-((S)-2-(2-(3-(2-((6-((1S,3R)-2-(2,2-Difluoroethyl)-3-methyl-2,3,4,9-tetrahydro-1H-pyrido[3,4-b]indol-1-yl)pyridin-3-yl)oxy)ethoxy)propoxy)acetamido)-3,3-dimethylbutanoyl)-4-hydroxy-N-(4-(4-methylthiazol-5-yl)benzyl)pyrrolidine-2-carboxamide], the “ER degradation ≥ 90% at 0.3 μM” value is “•” and the DC50 is 7.5 nM.

Regarding `Cc1ncsc1-c1ccc(CNC(=O)[C@@H]2C[C@@H](O)CN2C(=O)[C@@H](NC(=O)C(F)(F)OCCCCCCOc2cc(F)c([C@@H]3c4[nH]c5ccccc5c4C[C@@H](C)N3CC(C)(C)F)c(F)c2)C(C)(C)C)cc1` [Example 116, (2S,4R)-1-((S)-2-(2-((6-(3,5-Difluoro-4-((1R,3R)-2-(2-fluoro-2-methylpropyl)-3-methyl-2,3,4,9-tetrahydro-1H-pyrido[3,4-b]indol-1-yl)phenoxy)hexyl)oxy)-2,2-difluoroacetamido)-3,3-dimethylbutanoyl)-4-hydroxy-N-(4-(4-methylthiazol-5-yl)benzyl)pyrrolidine-2-carboxamide], the “ER degradation ≥ 90% at 0.3 μM” value was “•” and the DC50 turned out to be 5.3 nM.
